# From EP0509752A2, “Ophthalmic compositions comprising combinations of a carbonic anhydrase inhibitor and a beta-adrenergic antagonist” (MERCK & CO. INC., priority 1991, dated 1992)
# Test system: Patients with either ocular hypertension or primary open angle glaucoma
# Assay: Study of Compound I in combination with timolol: 12 hour diurnal IOP curve (Goldmann applanation tonometer)
# Format: in vivo
# Conditions: 2% Compound I, 1 drop to each eye every 12 hours for seven days, ten minutes after timolol 0.5% bid, worse eye analysis, preliminary IOP data
# Source text: Study of (S,S)-(-)-5,6-dihydro-4-ethylamino-6-methyl-4H-thieno[2,3b]thiopyran-2-sulfonamide-7,7-dioxide (I) in combination with Timolol
# Patients aged 40 or over, with either ocular hypertension or primary open angle glaucoma with an intraocular pressure (IOP) in one or both eyes of 22 mmHg or more at one time point each day while receiving timolol 0.5% twice a day (bid) alone were admitted to the study. Patients had been on timolol 0.5% bid, either alone or in combination for at least three weeks prior to study entry and had been on timolol 0.5% bid as their sole glaucoma therapy for at least two weeks prior to study admission.
# Secondary glaucoma was an exclusion as was a history of glaucoma surgery or laser trabeculoplasty/gonioplasty. Patients for whom timolol was contraindicated by the datasheet were excluded and also excluded were those on a concurrent β-blocker, carbonic anhydrase inhibitor, or clonidine. […]
# • 1. […] Patients were admitted for a 12 hour diurnal curve (i.e., IOP recorded at 08.00, 09.00, 10.00, 12.00, 14.00, 16.00, 18.00, 20.00 hours approximately, the 08.00 recording was immediately prior to instillation of the drops). All pressures were measured by the same observer using the same Goldmann applanation tonometer. • 3. […] On Day 2, the IOP of each patient was measured at 8 am and 9 am, and a 12 hour diurnal curve was recorded on Day 8. preliminary IOP data follow : […]
smiles,measurement,value
"CCN[C@H]1C[C@H](C)S(=O)(=O)c2sc(S(N)(=O)=O)cc21 [Compound I, (S,S)-(-)-5,6-dihydro-4-ethylamino-6-methyl-4H-thieno[2,3b]thiopyran-2-sulfonamide-7,7-dioxide]",effect over the effect of timolol alone (percent change in IOP on Day 8 from prestudy),13%-21%
